The subject of assay [1] is mitochondrial preparation of NICES0808 sample. Briefly: 2-D gel analysis of mitochondrial preparation. The format is cell-based, human. The following applies: direction not given. The method, then: NCIES0808 cells were treated with Q10 separately in larger volumes for isolation of sufficient mitochondria for proteomic analysis. Cells were treated with media, 50 uM Q10 or 100 uM Q10 for 0, 3, 6, 24 and 48 hours in T175 flasks. Two flasks were grown for each condition and cells from the two were pooled during harvesting. After the required treatment time, cells were trypsinized and washed twice in ice cold TBS. Pelleted cells were snap frozen in liquid nitrogen and frozen at −80° C. until mitochondria were isolated. Mitochondria were isolated using manufacturers instructions available with the MitoProfile Mitosciences Isolation Kit for Cultured Cells (Mitosciences Inc, Eugene, Oreg.).
Before isoelectric focusing (IEF), samples were solubilized in 40 mM Tris, 7 M urea, 2 M thiourea, and 1% C7 zwitterionic detergent, reduced with tributylphosphine, and alkylated with 10 mM acrylamide for 90 min at room temperature. After the sample was run through a 10-kDa cutoff Amicon Ultra device with at least 3 volumes of the resuspension buffer, consisting of 7 M urea, 2 M thiourea, and 2% CHAPS to reduce the conductivity of the sample. One hundred micrograms of protein were subjected to IEF on 11-cm pH 3 to 10, pH 4 to 7 or pH 6 to 11 immobilized pH gradient strips (GE, Amersham, USA) to 100,000 volts hour. After IEF, immobilized pH gradient strips were equilibrated in 6 M urea, 2% SDS, 50 mM Tris-acetate buffer, pH 7.0, and 0.01% bromphenol blue and subjected to SDS-polyacrylamide gel electrophoresis on 8 to 16% Tris-HCl Precast Gel, 1 mm (Bio-Rad, USA). The gels were run in duplicate. They were fixed, stained in SYPRO Ruby, 80 mL/gel (Invitrogen, USA) and imaged on Fuji FLA-5100 laser scanner.
A mitochondrial preparation of NICES0808 sample was also analyzed for proteins and below, in Table 8, is the list of proteins the amount of which was modulated following treatment with CoQ10.

In a further assay the test system is NCIES0808 cells. The experiment in a line: Real-time PCR, Human Mitochondrial arrays. The format is cell-based. To be noted: CoQ10 doses and time points examined (50/100 uM; 3-48 hours). The method, then: NCIES0808 cells were plated in T25 flasks at a density of 2×10^6 cells per flask in media or media containing 50 uM/100 uM Q10. All treatment groups were run in triplicate. Cells were harvested at 0, 3, 6, 24 or 48 hours. Pictures were taken to examine cell morphology before harvesting. To harvest cells, media was removed but saved to be able to collect floating apoptotic cells. Cells were trypsinized with 1 ml of trypsin-EDTA and the enzyme action was stopped by addition of 4 ml complete media. Trypsinized cells were added to the appropriate tube containing the media with dead cells. Cells were centrifuged at 1200 rpm for 5 minutes and media was aspirated leaving behind the cell pellet for RNA extraction. RNA isolation from cell pellets was carried out with the RNeasy kit (Qiagen, Valencia Calif.) according to the manufacturer's instructions. RNA samples were eluted from spin columns in water; absorbance was measured at 260 nm, 230 nm and 280 nm. The purity of RNA was evaluated by the 260/230 and 280/230 ratios. The concentration of RNA in all of the samples was calculated from absorbance values at […]. […] The ct values from each of the samples were normalized to three housekeeping genes and fold regulation of Q10 treated groups was compared to time matched controls from cells grown in regular media was calculated. […]

Assay [2] deals with keratinocytes and dermal fibroblasts. The experiment in a line: Proliferation and migration of normal cells. In kind it is cell-based. To be noted: including keratinocytes and dermal fibroblasts. An excerpt:
Moreover, a surprising divergent effect was observed on normal cells as compared to oncogenic cells.

In the case of Coenzyme Q10 [CoQ10], the “Proteins Modulated in NCIES0808 cells treated with CoQ10 (value = protein)” value is recorded as “eukaryotic translation elongation factor 1 beta 2” in assay [1] (gel spot 37); “retinoblastoma binding protein 4 isoform A” in assay [1] (gel spot 108); “cytoplasmic dynein IC-2” in assay [1] (gel spot 172); “chaperonin containing TCP1, subunit 3” in assay [1] (gel spot 227); “TAR DNA binding protein” in assay [1] (gel spot 1000). In addition, the “Genes modulated on Human Mitochondrial arrays” value in the assay with NCIES0808 cells is on record as “did not reveal any modulated genes”. In assay [2], the “Effect on normal cells” value is “increased proliferation and migration”.

The record behind these values is US20130266557A1, “METHODS FOR TREATMENT OF A SARCOMA USING AN EPIMETABOLIC SHIFTER (COENZYME Q10)” (priority 2009, published 2013).
